Experimental data reported in article PMC11721856, “Searching for novel MDM2/MDMX dual inhibitors through a drug repurposing approach” (Journal of Enzyme Inhibition and Medicinal Chemistry, 2023).

What was measured:
[1] = molecular target: T1, MDMX (Homo sapiens, UniProt O15151); test: competitive fluorescence polarisation, % inhibition at […]; conditions: read-out: Protein binding inhibition at 1 μM(%) ^a / MDMX
T1 construct: gene MDM4; residues 1–110
T1 sequence (O15151 1-110): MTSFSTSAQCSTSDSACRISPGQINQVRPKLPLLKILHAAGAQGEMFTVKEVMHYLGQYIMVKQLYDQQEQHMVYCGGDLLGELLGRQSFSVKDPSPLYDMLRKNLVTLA

[2] = molecular target: T2, MDM2 (Homo sapiens, UniProt Q00987); test: as above; conditions: read-out: Protein binding inhibition at 1 μM(%) ^a / MDM2
T2 construct: residues 1–110

Row | Compound | inhibition at 1 µM [1] [%] | inhibition at 1 µM [2] [%]
1 | COC(=C1C(=O)Nc2cc(Cl)ccc21)c1ccccc1 [H3, 6-chloro-3-(methoxy(phenyl)methylene) indolin-2-one] | 57.9 ± 6.1 | 72.8 ± 5.6
2 | COC(=C1C(=O)Nc2cc(Cl)c(F)cc21)c1ccccc1 [H6, 6-chloro-5-fluoro-3-(methoxy(phenyl)methylene) indolin-2-one] | – | 50.3 ± 2.5
3 | O=C1Nc2cc(Cl)ccc2C1=C(c1ccccc1)N1CCCC1 [H7, 6-chloro-3-(phenyl(pyrrolidin-1-yl)methylene)indolin-2-one] | – | 52.6 ± 2.1
4 | COC(=C1C(=O)Nc2cc(F)ccc21)c1ccccc1 [H5, 6-fluoro-3-(methoxy(phenyl)methylene) indolin-2-one] | – | 56.8 ± 1.9
